From US12435072B2, “Compounds” (Vicore Pharma AB, priority 2019, dated 2025)
Like-named read-outs stand apart in the source and are kept apart here.

Tests used:
[1] = Metabolic stability in pooled human liver microsomes; assay type: in vitro ADME; settings: pooled human liver microsomes 0.5 mg/ml, 1 μM test compound, 37° C.
Description: Pooled human liver microsomes in PBS at a concentration of 0.5 mg/ml was incubated with or without 1 mM NADPH for 70 min at 37° C. Test compound was added after 10 minutes to a final concentration of 1 μM. Samples were withdrawn at 0, 5, 15 and 60 minutes and added to test tubes containing acetonitrile, to stop the reaction, and with terfenadine, used as internal standard. After centrifugation at 10 000×g for 5 minutes the supernatant was diluted 1:1 with 1% formic acid. Samples were separated on a reverse phase column and detected by triple quadrupole MSMS (Agilant model 6540). The concentration of the parent compound at the different time points was measured with an external standard curve using terfenadine as internal standard and the initial metabolic rate in the presence or absence of NADPH calculated.

[2] = target: T1, human recombinant AT1 receptor (Homo sapiens, UniProt P30556); assay: Binding to AT1 receptor, radiometric scintillation assay (Eurofins); settings: ligand 125I(sar1,Ile8)-AT-II, tested at 1 and 10 μM
T1 construct: purchased Eurofins ITEM24
T1 sequence (P30556 1-359): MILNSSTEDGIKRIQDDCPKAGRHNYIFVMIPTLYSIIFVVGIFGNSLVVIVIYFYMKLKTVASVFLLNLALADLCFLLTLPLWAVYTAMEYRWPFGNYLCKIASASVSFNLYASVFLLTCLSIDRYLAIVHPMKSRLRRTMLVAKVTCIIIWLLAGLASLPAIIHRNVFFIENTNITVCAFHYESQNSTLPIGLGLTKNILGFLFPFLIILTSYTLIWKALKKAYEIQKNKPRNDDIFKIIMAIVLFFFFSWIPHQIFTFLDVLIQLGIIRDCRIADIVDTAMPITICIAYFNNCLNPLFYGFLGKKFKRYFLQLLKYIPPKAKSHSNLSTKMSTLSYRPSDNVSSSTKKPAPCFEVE
Description: Compounds were evaluated for binding to the human recombinant AT2 and AT1 receptor according to Eurofins protocol ITEM26 and ITEM24 using a radiometric scintillation assay.

[3] = with 1 mM NADPH, read-out: T1/2, + NaDPH
[4] = without NADPH, read-out: T1/2, no NaDPH

Row | SMILES | half-life at 1 μM [1, 3] | half-life at 1 μM [1, 4] | IC50 [2]
1 | CCc1nccn1Cc1ccc(-c2cc(CC(C)C)sc2S(=O)(=O)NC(=O)NCCOC)cc1 [Example 7, 3-(3-{p-[(2-Ethyl-1H-imidazol-1-yl)methyl]phenyl}-5-isobutyl-2-thienylsulfonyl)-1-(2-methoxy-ethyl)urea] | > 1 h | > 1 h | > 10 µM
2 | Cc1nccn1Cc1ccc(-c2cc(CC(C)C)sc2S(=O)(=O)NC(=O)NCc2ccccn2)cc1 [Example 2, 3-(5-isobutyl-3-{p-[(2-Methyl-1H-imidazol-1-yl)methyl]phenyl}-2-thienylsulfonyl)-1-[(2-pyridyl)methyl]urea] | > 1 h | > 1 h | > 10 µM
3 | Cc1nccn1Cc1ccc(-c2cc(CC(C)C)sc2S(=O)(=O)NC(=O)NCc2ccccn2)cc1F [Example 13, 3-(3-{3-Fluoro-4-[(2-methyl-1H-imidazol-1-yl)methyl]phenyl}-5-isobutyl-2-thienylsulfonyl)-1-[(2-pyridyl)methyl]urea] | > 1 h | > 1 h | 26 µM
4 | Cc1nccn1Cc1ccc(-c2cc(CC(C)C)sc2S(=O)(=O)NC(=O)NCc2nccn2C)cc1F [Example 15, 1-(3-{3-Fluoro-4-[(2-methyl-1H-imidazol-1-yl)methyl]phenyl}-5-isobutyl-2-thienylsulfonyl)-3-[(1-methyl-1H-imidazol-2-yl)methyl]urea] | > 1 h | > 1 h | 463 µM
5 | Cc1nccn1Cc1ccc(-c2cc(CC(C)C)sc2S(=O)(=O)NC(=O)NCc2cc(Cl)ccn2)cc1F.O=C(O)C(F)(F)F [Example 38, 1-[(4-chloropyridin-2-yl)methyl]-3-[(3-{3-fluoro-4-[(2-methyl-1H-imidazol-1-yl)methyl]phenyl}-5-(2-methylpropyl)thiophen-2-yl)sulfonyl]urea trifluoroacetic acid] | 0.45 h | > 1 h | 25 µM
6 | Cc1nccn1Cc1ccc(-c2cc(CC(C)C)sc2S(=O)(=O)NC(=O)NC(C)c2ccccn2)cc1F (stereo not drawn) [Example 25, 3-(3-{3-Fluoro-4-[(2-methyl-1H-imidazol-1-yl)methyl]phenyl}-5-isobutyl-2-thienylsulfonyl)-1-[1-(2-pyridyl)ethyl]urea] | 1 h | > 1 h | 30 µM
7 | Cc1nccn1Cc1ccc(-c2cc(CC(C)C)sc2S(=O)(=O)NC(=O)NCCC(F)(F)F)cc1F [Example 14, 3-(3-{3-Fluoro-4-[(2-methyl-1H-imidazol-1-yl)methyl]phenyl}-5-isobutyl-2-thienylsulfonyl)-1-(3,3,3-trifluoropropyl)urea] | 1.5 h | > 1 h | 25 µM
8 | CCc1nccn1Cc1ccc(-c2cc(CC(C)C)sc2S(=O)(=O)NC(=O)NCc2ccccc2)cc1 [Example 6, 1-Benzyl-3-(3-{p-[(2-ethyl-1H-imidazol-1-yl)methyl]phenyl}-5-isobutyl-2-thienylsulfonyl)-urea] | 0.4 h | > 1 h | > 1 µM
9 | Cc1nccn1Cc1ccc(-c2cc(CC(C)C)sc2S(=O)(=O)NC(=O)NCCCC(F)(F)F)cc1 [Example 5, 3-(5-isobutyl-3-{p-[(2-Methyl-1H-imidazol-1-yl)methyl]phenyl}-2-thienylsulfonyl)-1-(4,4,4-trifluorobutyl)-urea] | 0.417 h | > 1 h | > 10 µM
10 | CCCCNC(=O)NS(=O)(=O)c1sc(CC(C)C)cc1-c1ccc(Cn2ccnc2C)cc1 [Example 4, 1-Butyl-3-(5-isobutyl-3-{p-[(2-methyl-1H-imidazol-1-yl)methyl]phenyl}-2-thienylsulfonyl)-urea] | 0.65 h | > 1 h | > 10 µM
11 | Cc1nccn1Cc1ccc(-c2cc(CC(C)C)sc2S(=O)(=O)NC(=O)NCc2ccccc2)cc1 [Example 1, 1-benzyl-3-[[5-isobutyl-3-[4-[(2-methylimidazol-1-yl)methyl]phenyl]-2-thienyl]sulfonyl]urea] | 0.4 h | > 1 h | > 1 µM
12 | Cc1nccn1Cc1ccc(-c2cc(CC(C)C)sc2S(=O)(=O)NC(=O)NCc2ccc(F)c(F)c2)cc1F.O=C(O)C(F)(F)F [Example 34, 1-[(3,4-difluorophenyl)methyl]-3-[(3-{3-fluoro-4-[(2-methyl-1H-imidazol-1-yl)methyl]phenyl}-5-(2-methylpropyl)thiophen-2-yl)sulfonyl]urea trifluoroacetic acid] | 0.1 h | > 1 h | 21 µM

Further compounds by falling IC50 [2], results first:

Row | half-life at 1 μM [1, 3] | half-life at 1 μM [1, 4] | IC50 [2] | SMILES
13 | > 1 h | > 1 h | 19 µM | CCCNC(=O)NS(=O)(=O)c1sc(CC(C)C)cc1-c1ccc(Cn2ccnc2CC)c(F)c1.O=C(O)C(F)(F)F [Example 33, 1-[(3-{4-[(2-ethyl-1H-imidazol-1-yl)methyl]-3-fluorophenyl}-5-(2-methylpropyl)thiophen-2-yl)sulfonyl]-3-propylurea trifluoroacetic acid]
14 | 0.0667 h | > 1 h | 17 µM | Cc1nccn1Cc1ccc(-c2cc(CC(C)C)sc2S(=O)(=O)NC(=O)NCC2CCC(F)(F)CC2)cc1F.O=C(O)C(F)(F)F [Example 40, 1-[(4,4-difluorocyclohexyl)methyl]-3-[(3-{3-fluoro-4-[(2-methyl-1H-imidazol-1-yl)methyl]phenyl}-5-(2-methylpropyl)thiophen-2-yl)sulfonyl]urea trifluoroacetic acid]
15 | 1 h | > 1 h | 16 µM | Cc1nccn1Cc1ccc(-c2cc(CC(C)C)sc2S(=O)(=O)NC(=O)NCC(C)C)cc1F.O=C(O)C(F)(F)F [Example 39, 1-[(3-{3-fluoro-4-[(2-methyl-1H-imidazol-1-yl)methyl]phenyl}-5-(2-methylpropyl)thiophen-2-yl)sulfonyl]-3-(2-methylpropyl)urea trifluoroacetic acid]
16 | 0.75 h | > 1 h | 8 µM | Cc1nccn1Cc1ccc(-c2cc(CC(C)C)sc2S(=O)(=O)NC(=O)NCc2cccs2)cc1F.O=C(O)C(F)(F)F [Example 35, 1-[(3-{3-fluoro-4-[(2-methyl-1H-imidazol-1-yl)methyl]phenyl}-5-(2-methylpropyl)thiophen-2-yl)sulfonyl]-3-[(thiophen-2-yl)methyl]urea trifluoroacetic acid]
17 | 0.117 h | > 1 h | 5 µM | CCc1nccn1Cc1ccc(-c2cc(CC(C)C)sc2S(=O)(=O)NC(=O)NCc2ccc(F)cc2)cc1F.O=C(O)C(F)(F)F [Example 32, 3-[(3-{4-[(2-ethyl-1H-imidazol-1-yl)methyl]-3-fluorophenyl}-5-(2-methylpropyl)thiophen-2-yl)sulfonyl]-1-[(4-fluorophenyl)methyl] urea trifluoroacetic acid]
18 | 0.717 h | > 1 h | 4 µM | CC(C)Cc1cc(-c2ccc(Cn3ccnc3C(C)C)c(F)c2)c(S(=O)(=O)NC(=O)NCCC(F)(F)F)s1.O=C(O)C(F)(F)F [Example 41, 1-{[3-(3-fluoro-4-{[2-(propan-2-yl)-1H-imidazol-1-yl]methyl}phenyl)-5-(2-methylpropyl)thiophen-2-yl]sulfonyl}-3-(3,3,3-trifluoropropyl)urea trifluoroacetic acid]
